Data on six cell lines can be found in the supplement of paper PMC10307832.

Common to all, as to test: relative viability (nuclei count vs DMSO), 5 days (fraction); higher = more cells survive
Compound in experiment [1]: C1/C(=C\C2=CC=CS2)/C(=O)/C(=C/C3=CC=CS3)/C1 + Nc1ncn([C@H]2C[C@H](O)[C@@H](CO)O2)c(=O)n1 [Decitabine] (partner 2 µM)
The essentials:
(§1)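 Relative viability equals treated-well nuclei counts divided by vehicle-well nuclei counts. Counts came from 4× images of lung cancer cell lines grown in 1536-well plates for 5 days after pin-tool dosing on the day after seeding. Dosing used one drug alone or a fixed anchor-drug dose plus five library-drug doses (not always all listed) in √10 steps, and values are medians of duplicate plates.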

Compound in the experiment “TPCA-1 + Olaparib”: C1=CC(=CC=C1C2=CC(=C(S2)NC(=O)N)C(=O)N)F [TPCA-1] + O=C(c1cc(Cc2n[nH]c(=O)c3ccccc23)ccc1F)N1CCN(C(=O)C2CC2)CC1 [Olaparib] (partner 8 µM)
The essentials: as §1

Compound in experiment [2]: C[C@]12O[C@H](C[C@]1(O)CO)n1c3ccccc3c3c4c(c5c6ccccc6n2c5c31)CNC4=O [Lestaurtinib] + C[C@@H](Oc1cc(-c2cnn(C3CCNCC3)c2)cnc1N)c1c(Cl)ccc(F)c1Cl [Crizotinib] (partner 1 µM)
The essentials:
as §1

Compound in experiment [3]: C[C@]12O[C@H](C[C@]1(O)CO)n1c3ccccc3c3c4c(c5c6ccccc6n2c5c31)CNC4=O [Lestaurtinib] + C[C@]1(O)C[C@@H](c2nc(-c3ccc4ccc(-c5ccccc5)nc4c3)c3c(N)nccn32)C1 [Linsitinib] (partner 1 µM)
The essentials:
as §1

NCI-H522: the relative viability in experiment [1] (first compound 0.2 µM) was determined as 0.738; in experiment [1] (first compound 0.6325 µM) it was 0.753; in experiment [1] (first compound 2 µM), 0.722; in experiment [1] (first compound 6.325 µM), 0.673; in experiment [1] (first compound 20 µM), 0.604; with TPCA-1 + Olaparib (first compound 0.04 µM), 0.834. Besides, the relative viability was 0.504 in the experiment with TPCA-1 + Olaparib (first compound 0.1265 µM), 0.642 with TPCA-1 + Olaparib (first compound 0.4 µM), 0.643 in the experiment with TPCA-1 + Olaparib (first compound 1.265 µM) and 0.556 with TPCA-1 + Olaparib (first compound 4 µM).
Consider NCI-H1299, for which the relative viability in experiment [2] (first compound 0.005 µM) was 0.912; in experiment [2] (first compound 0.01581 µM), 0.953; in experiment [2] (first compound 0.05 µM), 0.542; in experiment [2] (first compound 0.1581 µM) it was 0.68; in experiment [2] (first compound 0.5 µM), 0.467; with TPCA-1 + Olaparib (first compound 0.04 µM), 0.947. For the same cell line, the relative viability with TPCA-1 + Olaparib (first compound 0.1265 µM) stood at 0.963; with TPCA-1 + Olaparib (first compound 0.4 µM) it was 0.941; with TPCA-1 + Olaparib (first compound 1.265 µM), 0.932; with TPCA-1 + Olaparib (first compound 4 µM), 0.939; in experiment [3] (first compound 0.005 µM) it was 0.985; in experiment [3] (first compound 0.01581 µM) it was 1.02. The values for the relative viability in experiment [3] (first compound 0.05 µM), in experiment [3] (first compound 0.1581 µM) and in experiment [3] (first compound 0.5 µM) were 0.688, 0.504 and 0.499, respectively.
As to NCI-H1395, the relative viability was found to be 0.729 in experiment [1] (first compound 0.2 µM); 0.777 in experiment [1] (first compound 0.6325 µM); 0.754 in experiment [1] (first compound 2 µM); 0.679 in experiment [1] (first compound 6.325 µM); 0.729 in experiment [1] (first compound 20 µM); 0.496 with TPCA-1 + Olaparib (first compound 0.04 µM). Further, the relative viability with TPCA-1 + Olaparib (first compound 0.1265 µM) turned out to be 0.426; in the experiment with TPCA-1 + Olaparib (first compound 0.4 µM), 0.494; with TPCA-1 + Olaparib (first compound 1.265 µM), 0.519; with TPCA-1 + Olaparib (first compound 4 µM) it was 0.494; in experiment [3] (first compound 0.005 µM), 1.07; in experiment [3] (first compound 0.01581 µM), 1.2. Besides, the relative viability in experiment [3] (first compound 0.05 µM) was determined as 0.836; in experiment [3] (first compound 0.1581 µM), 0.894; in experiment [3] (first compound 0.5 µM), 0.421.
On to NCI-H1563, for which the relative viability was found to be 0.913 in experiment [2] (first compound 0.005 µM); 0.921 in experiment [2] (first compound 0.01581 µM); 0.837 in experiment [2] (first compound 0.05 µM); 0.907 in experiment [2] (first compound 0.1581 µM); 0.794 in experiment [2] (first compound 0.5 µM); 1.25 in experiment [3] (first compound 0.005 µM). The relative viability turned out to be 1.17 in experiment [3] (first compound 0.01581 µM), 1.16 in experiment [3] (first compound 0.05 µM), 1.22 in experiment [3] (first compound 0.1581 µM) and 0.736 in experiment [3] (first compound 0.5 µM).
Take NCI-H1648: the relative viability is 0.489 in experiment [1] (first compound 0.2 µM); 0.478 in experiment [1] (first compound 0.6325 µM); 0.603 in experiment [1] (first compound 2 µM); 0.45 in experiment [1] (first compound 6.325 µM); 0.432 in experiment [1] (first compound 20 µM); 0.799 with TPCA-1 + Olaparib (first compound 0.04 µM). Further, the relative viability with TPCA-1 + Olaparib (first compound 0.1265 µM) came to 0.81; with TPCA-1 + Olaparib (first compound 0.4 µM) it was 0.626; with TPCA-1 + Olaparib (first compound 1.265 µM), 1.1; with TPCA-1 + Olaparib (first compound 4 µM), 0.933.
For the cell line NCI-H1650, the relative viability in experiment [1] (first compound 0.2 µM) is 0.484; in experiment [1] (first compound 0.6325 µM), 0.374; in experiment [1] (first compound 2 µM), 0.442; in experiment [1] (first compound 6.325 µM) it was 0.499; in experiment [1] (first compound 20 µM) it was 0.354; in experiment [2] (first compound 0.005 µM), 0.901. Moreover, the relative viability in experiment [2] (first compound 0.01581 µM) worked out at 1.13; in experiment [2] (first compound 0.05 µM) it was 0.841; in experiment [2] (first compound 0.1581 µM), 1.29; in experiment [2] (first compound 0.5 µM), 0.308; in the experiment with TPCA-1 + Olaparib (first compound 0.04 µM), 0.893; in the experiment with TPCA-1 + Olaparib (first compound 0.1265 µM), 0.826. The results for the relative viability in the experiment with TPCA-1 + Olaparib (first compound 0.4 µM), with TPCA-1 + Olaparib (first compound 1.265 µM) and with TPCA-1 + Olaparib (first compound 4 µM) were 0.758, 0.822 and 0.863, respectively.
